#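 Step 1: Grow cells in 96-well plates. Step 2: Expose to compound for 48 hours at 5 concentrations. Step 3: Interpolate endpoints linearly; if unreached, use highest concentration. At the GI50, growth is halved.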 The source made the active and inactive calls. Cut-off read from the data, not from the text of the source: active = GI50 up to about 1.1 µM and inactive = higher.
# How the values were obtained:
# Test in all cases: DTP human tumour cell line panel, 48 h
# 786-0 = tested on: 786-0
# HCT-15 = tested on: HCT-15
# OVCAR-4 = tested on: OVCAR-4
# NCI-H522 = tested on: NCI-H522
# SF-268 = tested on: SF-268
# OVCAR-8 = tested on: OVCAR-8
# SNB-19 = tested on: SNB-19
# SK-MEL-2 = tested on: SK-MEL-2
# RPMI-8226 = tested on: RPMI-8226
# SN12C = tested on: SN12C
# MOLT-4 = tested on: MOLT-4
# SF-539 = tested on: SF-539
# NCI/ADR-RES = tested on: NCI/ADR-RES
# IGROV-1 = tested on: IGROV-1
# SR = tested on: SR
# A549 = tested on: A549
# NCI-H226 = tested on: NCI-H226
# COLO 205 = tested on: COLO 205
# UACC-257 = tested on: UACC-257
# PC-3 = tested on: PC-3
# UACC-62 = tested on: UACC-62
# HT-29 = tested on: HT-29
# SW-620 = tested on: SW-620
# NCI-H460 = tested on: NCI-H460
# SK-MEL-28 = tested on: SK-MEL-28
# T47D = tested on: T47D
# OVCAR-5 = tested on: OVCAR-5
# SNB-75 = tested on: SNB-75
# EKVX = tested on: EKVX
# HCT-116 = tested on: HCT-116
# BT-549 = tested on: BT-549
# UO-31 = tested on: UO-31
# Hs-578T = tested on: Hs-578T
# SK-MEL-5 = tested on: SK-MEL-5
# HOP-62 = tested on: HOP-62
# ACHN = tested on: ACHN
# MDA-MB-231 = tested on: MDA-MB-231
# MCF7 = tested on: MCF7
# K562 = tested on: K562
# TK-10 = tested on: TK-10
# SK-OV-3 = tested on: SK-OV-3
# Malme-3M = tested on: Malme-3M
# U-251 = tested on: U-251
# LOX IMVI = tested on: LOX IMVI
# NCI-H23 = tested on: NCI-H23
# HCC 2998 = tested on: HCC 2998
# OVCAR-3 = tested on: OVCAR-3
# KM12 = tested on: KM12
# MDA-MB-435 = tested on: MDA-MB-435
# SF-295 = tested on: SF-295
# MDA-N = tested on: MDA-N
# CAKI-1 = tested on: CAKI-1
# M14 = tested on: M14
# HOP-92 = tested on: HOP-92
# RXF 393 = tested on: RXF 393
# DU-145 = tested on: DU-145
# A498 = tested on: A498
# HL-60 = tested on: HL-60
# CCRF-CEM = tested on: CCRF-CEM
smiles,measurement,setting,value
O=C(CCCNc1nc(-c2ccccc2)cs1)c1cccs1,GI50,786-0,> 100 µM (inactive)
same,GI50,HCT-15,> 100 µM
same,GI50,OVCAR-4,> 100 µM (inactive)
same,GI50,NCI-H522,> 100 µM (inactive)
same,GI50,SF-268,> 100 µM (inactive)
same,GI50,OVCAR-8,> 100 µM (inactive)
same,GI50,SNB-19,> 100 µM (inactive)
same,GI50,SK-MEL-2,> 100 µM (inactive)
same,GI50,RPMI-8226,> 100 µM (inactive)
same,GI50,SN12C,> 100 µM (inactive)
same,GI50,MOLT-4,> 100 µM (inactive)
same,GI50,SF-539,> 100 µM (inactive)
same,GI50,NCI/ADR-RES,> 100 µM (inactive)
same,GI50,IGROV-1,> 100 µM (inactive)
same,GI50,SR,> 100 µM (inactive)
same,GI50,A549,> 100 µM (inactive)
same,GI50,NCI-H226,> 100 µM (inactive)
same,GI50,COLO 205,> 100 µM (inactive)
same,GI50,UACC-257,> 100 µM (inactive)
same,GI50,PC-3,> 100 µM (inactive)
same,GI50,UACC-62,> 100 µM (inactive)
same,GI50,HT-29,> 100 µM (inactive)
same,GI50,SW-620,> 100 µM (inactive)
same,GI50,NCI-H460,> 100 µM (inactive)
same,GI50,SK-MEL-28,> 100 µM (inactive)
same,GI50,T47D,> 100 µM (inactive)
same,GI50,OVCAR-5,> 100 µM (inactive)
same,GI50,SNB-75,> 100 µM (inactive)
same,GI50,EKVX,> 100 µM (inactive)
same,GI50,HCT-116,> 100 µM (inactive)
same,GI50,BT-549,> 100 µM (inactive)
same,GI50,UO-31,> 100 µM (inactive)
same,GI50,Hs-578T,> 100 µM (inactive)
same,GI50,SK-MEL-5,> 100 µM (inactive)
same,GI50,HOP-62,> 100 µM (inactive)
same,GI50,ACHN,> 100 µM (inactive)
same,GI50,MDA-MB-231,> 100 µM (inactive)
same,GI50,MCF7,> 100 µM (inactive)
same,GI50,K562,> 100 µM (inactive)
same,GI50,TK-10,> 100 µM (inactive)
same,GI50,SK-OV-3,> 100 µM (inactive)
same,GI50,Malme-3M,> 100 µM (inactive)
same,GI50,U-251,> 100 µM (inactive)
same,GI50,LOX IMVI,> 100 µM (inactive)
same,GI50,NCI-H23,> 100 µM (inactive)
same,GI50,HCC 2998,> 100 µM (inactive)
same,GI50,OVCAR-3,> 100 µM (inactive)
same,GI50,KM12,> 100 µM (inactive)
same,GI50,MDA-MB-435,> 100 µM (inactive)
same,GI50,SF-295,> 100 µM (inactive)
same,GI50,MDA-N,> 100 µM (inactive)
same,GI50,CAKI-1,> 100 µM (inactive)
same,GI50,M14,> 100 µM (inactive)
COc1cc(OC)c2c(O)c(S(=O)(=O)c3ccc(C)cc3)c(=O)oc2c1,GI50,786-0,> 100 µM (inactive)
same,GI50,HCT-15,> 100 µM
same,GI50,OVCAR-4,> 100 µM (inactive)
same,GI50,NCI-H522,> 100 µM (inactive)
same,GI50,SF-268,> 100 µM (inactive)
same,GI50,OVCAR-8,> 100 µM (inactive)
same,GI50,SNB-19,93.3 µM (inactive)
same,GI50,SK-MEL-2,> 100 µM (inactive)
same,GI50,RPMI-8226,76.7 µM (inactive)
same,GI50,SN12C,> 100 µM (inactive)
same,GI50,MOLT-4,> 100 µM (inactive)
same,GI50,SF-539,> 100 µM (inactive)
same,GI50,NCI/ADR-RES,> 100 µM (inactive)
same,GI50,IGROV-1,> 100 µM (inactive)
same,GI50,HOP-92,> 100 µM (inactive)
same,GI50,SR,> 100 µM (inactive)
same,GI50,A549,> 100 µM (inactive)
same,GI50,NCI-H226,> 100 µM (inactive)
same,GI50,COLO 205,> 100 µM (inactive)
same,GI50,UACC-257,> 100 µM (inactive)
same,GI50,PC-3,> 100 µM (inactive)
same,GI50,UACC-62,> 100 µM (inactive)
same,GI50,HT-29,> 100 µM (inactive)
same,GI50,SW-620,> 100 µM (inactive)
same,GI50,NCI-H460,> 100 µM (inactive)
same,GI50,SK-MEL-28,> 100 µM (inactive)
same,GI50,T47D,> 100 µM (inactive)
same,GI50,OVCAR-5,> 100 µM (inactive)
same,GI50,SNB-75,> 100 µM (inactive)
same,GI50,RXF 393,> 100 µM (inactive)
same,GI50,EKVX,> 100 µM (inactive)
same,GI50,HCT-116,77.8 µM (inactive)
same,GI50,BT-549,> 100 µM (inactive)
same,GI50,UO-31,> 100 µM (inactive)
same,GI50,Hs-578T,94.6 µM (inactive)
same,GI50,SK-MEL-5,> 100 µM (inactive)
same,GI50,ACHN,> 100 µM (inactive)
same,GI50,MDA-MB-231,> 100 µM (inactive)
same,GI50,DU-145,> 100 µM (inactive)
same,GI50,MCF7,> 100 µM (inactive)
same,GI50,K562,69.5 µM (inactive)
same,GI50,TK-10,> 100 µM (inactive)
same,GI50,SK-OV-3,> 100 µM (inactive)
same,GI50,A498,> 100 µM (inactive)
same,GI50,Malme-3M,> 100 µM (inactive)
same,GI50,U-251,96.6 µM (inactive)
same,GI50,NCI-H23,> 100 µM (inactive)
same,GI50,HL-60,> 100 µM (inactive)
same,GI50,HCC 2998,> 100 µM (inactive)
same,GI50,CCRF-CEM,78.2 µM (inactive)
same,GI50,OVCAR-3,> 100 µM (inactive)
same,GI50,KM12,92.5 µM (inactive)
same,GI50,MDA-MB-435,> 100 µM (inactive)
same,GI50,SF-295,> 100 µM (inactive)
same,GI50,CAKI-1,> 100 µM (inactive)
same,GI50,M14,> 100 µM (inactive)
CCn1c(-c2c(Cl)cc(O)cc2Cl)cc2c(Cl)cc(O)cc21,GI50,786-0,4.66 µM (inactive)
same,GI50,HCT-15,3.48 µM
same,GI50,OVCAR-4,4.85 µM (inactive)
same,GI50,NCI-H522,1.72 µM (inactive)
same,GI50,SF-268,2.88 µM (inactive)
same,GI50,OVCAR-8,4.59 µM (inactive)
same,GI50,SNB-19,8.47 µM (inactive)
same,GI50,SK-MEL-2,4.02 µM (inactive)
same,GI50,RPMI-8226,5.81 µM (inactive)
same,GI50,SN12C,13.3 µM (inactive)
same,GI50,MOLT-4,8.87 µM (inactive)
same,GI50,SF-539,3.24 µM (inactive)
same,GI50,NCI/ADR-RES,5.13 µM (inactive)
same,GI50,IGROV-1,3.21 µM (inactive)
same,GI50,HOP-92,13.8 µM (inactive)
same,GI50,SR,5.45 µM (inactive)
same,GI50,A549,4.42 µM (inactive)
same,GI50,NCI-H226,26.4 µM (inactive)
same,GI50,COLO 205,15.2 µM (inactive)
same,GI50,UACC-257,11.7 µM (inactive)
same,GI50,PC-3,9.04 µM (inactive)
same,GI50,UACC-62,8.49 µM (inactive)
same,GI50,HT-29,1.58 µM (inactive)
same,GI50,SW-620,5.69 µM (inactive)
same,GI50,NCI-H460,3.56 µM (inactive)
same,GI50,SK-MEL-28,2.3 µM (inactive)
same,GI50,T47D,7.62 µM (inactive)
same,GI50,OVCAR-5,8.97 µM (inactive)
same,GI50,SNB-75,4.18 µM (inactive)
same,GI50,RXF 393,2.33 µM (inactive)
same,GI50,EKVX,13.2 µM (inactive)
same,GI50,HCT-116,4.26 µM (inactive)
same,GI50,BT-549,4.5 µM (inactive)
same,GI50,UO-31,7.83 µM (inactive)
same,GI50,Hs-578T,5.07 µM (inactive)
same,GI50,SK-MEL-5,3.21 µM (inactive)
same,GI50,HOP-62,6.25 µM (inactive)
same,GI50,ACHN,4.66 µM (inactive)
same,GI50,MDA-MB-231,5.9 µM (inactive)
same,GI50,DU-145,4.48 µM (inactive)
same,GI50,MCF7,3.71 µM (inactive)
same,GI50,K562,3.41 µM (inactive)
same,GI50,TK-10,13.1 µM (inactive)
same,GI50,SK-OV-3,7.36 µM (inactive)
same,GI50,A498,13.9 µM (inactive)
same,GI50,Malme-3M,14 µM (inactive)
same,GI50,U-251,4.03 µM (inactive)
same,GI50,LOX IMVI,6.38 µM (inactive)
same,GI50,NCI-H23,7.78 µM (inactive)
same,GI50,HL-60,3.43 µM (inactive)
same,GI50,CCRF-CEM,6.04 µM (inactive)
same,GI50,OVCAR-3,6.08 µM (inactive)
same,GI50,KM12,5.07 µM (inactive)
same,GI50,MDA-MB-435,1.67 µM (inactive)
same,GI50,SF-295,4.05 µM (inactive)
same,GI50,CAKI-1,6.14 µM (inactive)
same,GI50,M14,6.05 µM (inactive)

# From ChEMBL document CHEMBL1201862, “PubChem BioAssay data set” (2004)
